From patent US11292789B1 (priority 2020, dated 2022)

Assays:
α-glucosidase = α-glucosidase (Saccharomyces cerevisiae, UniProt P53341); type: biochemical; details: concentrations 0.01 to 0.25 mg/ml, FIG. 7
Description: Next, 20 μl of P-NPG (5 mM) was added as a substrate and further incubated at 37° C. for 20 minutes. This reaction was stopped by adding 50 μl of Na2CO3 (0.1 M). […] Each experiment was performed three times. An inhibition rate (%) was evaluated using the following equation (inhibition (%)=[1−(sample/control)]×100).

[1] = system: 12-day-old cortical cell cultures; test: Nerve cell protection against excitotoxin damage, MTT assay; type: cell-based; details: for Cell viability from excitotoxin-induced neuron toxicity: cortical cell cultures pre-treated 1 hour, then glutamate, AMPA, NMDA, kinate, MTT after one day
Description: Nerve cell protection ability was evaluated using Quinazole and MDPX-V2021 prepared according to Example 1 and MK-801 prepared according to Comparative Example 3.
To evaluate the neuroprotective activity of Quinazole, MDPX-V2021 and MK-801 against damage due to excitotoxin, each of the samples was dissolved in ethanol (final concentration, 0.1%), and a 12-day-old cortical cell cultures were used. The cultures were respectively pre-treated with the samples for 1 hour and then exposed to 20 μM glutamate, 80 μM α-amino-3-hydroxy-5-methyl-4-isoxazolepropionic acid, 40 μM N-Methyl-D-aspartic acid and 200 μM kinate. Next, each of the cultures was additionally cultured in neurobasal medium for one day, and the survival rate of the nerve cells was measured by MTT assay.
MTT tetrazolium (1 mg/mL) was added to neurons grown in 96-well plate, and then cultured at 37° C. for 1 hour. The reaction medium was carefully sucked, and then DMSO was added thereto to dissolve the blue formazan product. The survival rate of the nerve cells was estimated by quantifying an available formazan at 540 nm using a multi-mode plate reader. The test was repeated 3 times, and the cell viability was calculated according to 100×(excitotoxin OD+sample treatment-excitotoxin treatment OD)/(control OD-excitotoxin treatment OD).

α-glucosidase, sequence (P53341 whole entry, looked up): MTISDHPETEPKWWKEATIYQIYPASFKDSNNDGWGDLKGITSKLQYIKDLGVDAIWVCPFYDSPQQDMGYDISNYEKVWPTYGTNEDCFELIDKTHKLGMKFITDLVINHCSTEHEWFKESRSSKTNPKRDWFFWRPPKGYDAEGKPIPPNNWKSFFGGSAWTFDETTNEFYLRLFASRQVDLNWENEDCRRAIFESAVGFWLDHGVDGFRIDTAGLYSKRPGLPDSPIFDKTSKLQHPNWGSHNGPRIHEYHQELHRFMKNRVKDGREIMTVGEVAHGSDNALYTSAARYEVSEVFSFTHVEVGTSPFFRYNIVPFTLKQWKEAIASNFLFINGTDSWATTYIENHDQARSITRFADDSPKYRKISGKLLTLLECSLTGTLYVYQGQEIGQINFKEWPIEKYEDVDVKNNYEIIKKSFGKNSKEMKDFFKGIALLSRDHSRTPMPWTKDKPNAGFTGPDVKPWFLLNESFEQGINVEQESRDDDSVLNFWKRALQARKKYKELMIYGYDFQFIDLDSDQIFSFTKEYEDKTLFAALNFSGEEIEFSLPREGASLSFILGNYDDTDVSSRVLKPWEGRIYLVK

## COc1ccc(-n2cnc3ccc(OC)cc3c2=O)c(COC(C)(C)C)c1 [MDPX-V2021, 3-{2-[(tert-butoxy)methyl]-4-methoxyphenyl}-6-methoxy-3,4-dihydroquinazolin-4-one]
α-glucosidase
  inhibitory activity against α-glucosidase (in words): has inhibitory activity against α-glucosidase
[1]
  Cell viability from excitotoxin-induced neuron toxicity: 84.083 ± 3.482%
[1]; sample concentration range of 0.1 to 50 μM, FIG. 8
  cell viability compared with Quinazole (in words): significantly higher

## CC12NC(Cc3ccccc31)c1ccccc12 (centres unmarked) [MK-801, reference compound]
[1]
  Cell viability from excitotoxin-induced neuron toxicity: 78.830 ± 0.567%

## COc1ccc(-n2cnc3ccc(OC)cc3c2=O)c(CO)c1 [Quinazol A, Dictyoquinazol A, reference compound]
[1]
  Cell viability from excitotoxin-induced neuron toxicity: 68.910 ± 1.406%
